Holding throughout (type): biochemical
The target in one assay is T1, PDE7B (Homo sapiens, UniProt Q9NP56).
T1 construct: cell lysate containing full length PDE7A, PDE7B and PDE1C enzyme; made in house; host or cells: cell lysate
As to the kind of experiment: PDE7B [3H]-cAMP scintillation proximity assay (SPA) enzyme inhibition. Particulars: for Ki: full length PDE7B in cell lysate, ~25 nM cAMP, Ki from IC50 by Cheng-Prussof equation; for 1C/7B selectivity: ratio PDE1C Ki / PDE7B Ki. The protocol:
(§1) The ability of the compounds of formula (I) to inhibit PDE7 and PDE1 may be measured using the following assay protocol.
(§2) PDE7A, PDE7B and PDE1C enzymes catalyse the hydrolysis of 3′,5′-cyclic adenosine monophosphate (cAMP) to the 5′ adenosine monophosphate, 5′AMP. In a multiwell plate, PDE enzyme, [^3H]-cAMP and the test compounds, are incubated at room temperature. The incubation is terminated by addition of commercially available yttrium silicate scintillation proximity assay (SPA) beads containing zinc sulphate. The yttrium silicate beads preferentially bind linear nucleotides, thus the product of the enzyme reaction, [^3H]-5′AMP binds to the bead to produce a light signal, which is detected by a scintillation counter. The amount of signal produced directly correlates with the amount of product formed, and thus the activity of the enzyme. The maximum signal is obtained where enzyme and substrate are incubated alone. The background signal is measured from wells either containing no enzyme, or from wells containing a supra-maximal concentration of a known PDE 7A/7B/1C inhibitor. Each purified batch of enzyme is quality controlled and its Km, Vmax and specific activity determined from kinetic studies before use in compound inhibition studies. The inhibition of the enzyme, by a test compound, is calculated relative to the maximum and background responses.
(§3) The compound of Example 75 of WO 02/074754, 5′-carboxypropoxy-8′-chloro-spiro[cyclohexane-1-4′-(3′,4′-dihydro)quinazolin]-2′(1′H)-one (referred to as compound A hereafter) was used as a standard for PDE7A and PDE7B. The compound of Example 32 of WO 02/074754, 4-(8′-chloro-2′-oxo-2′,3′-dihydro-1′H-spiro[cyclohexane-1,4′-quinazolin]-6′-yl)benzoic acid (referred to as compound B hereafter) was used as a standard for PDE1C.
(§4) The optimisation of this assay has been carried out using cell lysate containing full length PDE7A, PDE7B and PDE1C enzyme. The concentration of the enzyme in this cell lysate sample is unknown, so the specific activity of the cell lysate is used as a measure to ensure that the same activity per well is used despite any batch-to-batch variation of concentration/activity.
(§5) PDE7A/7B/1C stock enzyme was prepared and kept at −20° C. in appropriately sized aliquots to reduce the number of freeze/thaw cycles. […] PDE7A is diluted to 1/8000, PDE7B to 1/10000 and PDE1C to 1/200000.
(§6) The final assay [cAMP] of ˜25 nM is required, so ˜50 nM [^3H]-cAMP was prepared. 9 ml of substrate solution was prepared by mixing 10.8 μl of [^3H]-cAMP (available from Amersham) with 8975 μl of assay buffer.
(§7) 1 μl test compound was transferred into a suitable multi-well assay plate immediately prior to reagent assay addition, 14 μl enzyme solution was then added to the assay plate, followed by 15 μl substrate solution (ie: final assay volume 30 μl, with a final screening compound concentration of 1 μM for PDE7A and PDE7B and 10 μM for PDE1C). The plate was then sealed using a plate sealer and incubated at room temperature for 45 min on the plate shaker.
(§8) 30 μl Yttrium Silicate PDE4 SPA beads were then added, ensuring constant stirring of the beads to give even distribution in the assay plate. The plate was then sealed using a plate sealer and incubated at room temperature for 30 mins on the plate shaker. The beads were then allowed to settle for 30 mins, before spinning the plates for 1 min at 200 g.
(§9) The plates were then read on a suitable radioactive counter, for example NXT-TopCount™ (available from Perkin Elmer) using the relevant protocol (30 second read time per well).
(§10) The data was fitted to a sigmoid curve using a least squares algorithm.
(§11) The IC50 value was converted to a value using the Cheng-Prussof equation: […]
Background: In a scintillation proximity assay essentially only radioactivity close to the scintillant gives light.

Another assay addresses T2, PDE1C (Homo sapiens, UniProt Q14123).
T2 construct: cell lysate containing full length PDE7A, PDE7B and PDE1C enzyme; made in house; host or cells: cell lysate
As to the kind of experiment: PDE1C [3H]-cAMP scintillation proximity assay (SPA) enzyme inhibition. Particulars: full length PDE1C in cell lysate; 75 nM cAMP; Ki from IC50 by Cheng-Prussof equation. The protocol:
as §1, §2, §3, §4, §5
The final assay [cAMP]=75 nM therefore the required solution [cAMP]=0.15 μM (1/2 dilution in assay plate)
as §7, §8, §9, §10, §11

In the next assay the target is T3, PDE7A (Homo sapiens, UniProt Q13946).
T3 construct: cell lysate containing full length PDE7A, PDE7B and PDE1C enzyme; made in house; host or cells: cell lysate
As to the kind of experiment: PDE7A [3H]-cAMP scintillation proximity assay (SPA) enzyme inhibition. Particulars: for Ki: full length PDE7A in cell lysate, ~25 nM cAMP, Ki from IC50 by Cheng-Prussof equation; for 1C/7A selectivity: ratio PDE1C Ki / PDE7A Ki. Here is the method: as §1, §2, §3, §4, §5, §6, §7, §8, §9, §10, §11

T1 sequence (Q9NP56 whole entry): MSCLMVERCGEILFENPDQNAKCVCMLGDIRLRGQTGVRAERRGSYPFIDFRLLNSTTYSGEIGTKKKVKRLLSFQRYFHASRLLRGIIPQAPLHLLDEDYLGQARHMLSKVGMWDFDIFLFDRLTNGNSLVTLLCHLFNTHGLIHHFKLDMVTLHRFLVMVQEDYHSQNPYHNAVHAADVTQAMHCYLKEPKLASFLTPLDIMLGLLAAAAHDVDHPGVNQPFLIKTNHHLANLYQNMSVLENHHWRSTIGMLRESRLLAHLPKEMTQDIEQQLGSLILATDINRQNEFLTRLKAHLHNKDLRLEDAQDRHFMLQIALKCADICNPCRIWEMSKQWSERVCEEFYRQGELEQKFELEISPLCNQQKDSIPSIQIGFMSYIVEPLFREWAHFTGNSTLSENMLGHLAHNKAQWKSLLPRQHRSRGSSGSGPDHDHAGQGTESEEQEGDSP
T2 sequence (Q14123 whole entry): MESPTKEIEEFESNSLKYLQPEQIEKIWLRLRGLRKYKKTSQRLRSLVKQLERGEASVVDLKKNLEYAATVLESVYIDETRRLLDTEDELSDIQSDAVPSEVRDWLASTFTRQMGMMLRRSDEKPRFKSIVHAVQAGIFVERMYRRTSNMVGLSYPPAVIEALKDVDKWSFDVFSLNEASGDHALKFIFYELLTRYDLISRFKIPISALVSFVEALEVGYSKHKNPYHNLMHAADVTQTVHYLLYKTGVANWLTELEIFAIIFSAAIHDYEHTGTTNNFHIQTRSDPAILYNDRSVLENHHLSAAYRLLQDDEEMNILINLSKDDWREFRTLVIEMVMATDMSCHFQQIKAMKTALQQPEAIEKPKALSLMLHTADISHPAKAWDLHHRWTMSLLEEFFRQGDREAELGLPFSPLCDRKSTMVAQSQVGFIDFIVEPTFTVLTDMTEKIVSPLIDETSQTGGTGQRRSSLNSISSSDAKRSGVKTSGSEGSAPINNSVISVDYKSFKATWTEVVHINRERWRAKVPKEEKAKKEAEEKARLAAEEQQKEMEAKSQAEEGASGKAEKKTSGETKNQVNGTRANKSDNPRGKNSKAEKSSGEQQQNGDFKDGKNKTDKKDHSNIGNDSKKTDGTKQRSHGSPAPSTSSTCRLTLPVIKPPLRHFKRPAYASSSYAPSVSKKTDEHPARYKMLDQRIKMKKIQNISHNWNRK
T3 sequence (Q13946 whole entry): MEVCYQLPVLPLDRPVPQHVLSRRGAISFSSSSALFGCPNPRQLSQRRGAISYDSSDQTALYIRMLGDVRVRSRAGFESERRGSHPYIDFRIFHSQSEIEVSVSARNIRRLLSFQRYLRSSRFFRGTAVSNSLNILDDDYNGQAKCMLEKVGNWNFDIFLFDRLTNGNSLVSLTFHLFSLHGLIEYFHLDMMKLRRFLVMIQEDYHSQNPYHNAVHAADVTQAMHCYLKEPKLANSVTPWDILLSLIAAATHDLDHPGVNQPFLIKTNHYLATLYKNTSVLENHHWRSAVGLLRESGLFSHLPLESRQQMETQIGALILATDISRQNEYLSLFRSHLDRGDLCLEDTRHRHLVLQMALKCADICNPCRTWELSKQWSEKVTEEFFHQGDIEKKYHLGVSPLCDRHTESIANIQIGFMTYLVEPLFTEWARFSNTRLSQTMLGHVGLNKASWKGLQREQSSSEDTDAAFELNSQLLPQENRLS

Usually Ki stands for the equilibrium dissociation constant of an inhibitor or competing ligand from its target. The low end stands for higher affinity, the high end for lower affinity. As to `O=C1Nc2c(Cl)ccc(Oc3c(Cl)cccc3-c3nn[nH]n3)c2C2(CCCC2)N1` [Example 15, 8′-chloro-5′-[6-chloro-2-(1H-tetrazol-5-yl)phenoxy]-1′H-spiro[cyclopentane-1,4′-quinazolin]-2′(3′H)-one], the Ki came out at 6.6 nM at PDE7B, 1080 nM at PDE1C and 5 nM on PDE7A. Moreover, the 1C/7B selectivity at PDE7B is reported as 164. Also, the 1C/7A selectivity on PDE7A stood at 217.

With `O=C1Nc2c(Cl)ccc(Oc3ccccc3-c3nn[nH]n3)c2C2(CCCC2)N1` [Example 16, 8′-chloro-5′-[2-(1H-tetrazol-5-yl)phenoxy]-1′H-spiro[cyclopentane-1,4′-quinazolin]-2′(3′H)-one], at PDE7B, the inhibition constant Ki was determined as 9.8 nM and the 1C/7B selectivity came to 79. The Ki at PDE1C stood at 778 nM. Further, at PDE7A, the affinity corresponds to a Ki of 2.3 nM and the 1C/7A selectivity is listed as 345.

As to `O=C1Nc2c(Cl)ccc(Oc3ccccc3-c3nnn[nH]3)c2C2(CCCCC2)N1` [Example 17, 8′-chloro-5′-[2-(1H-tetrazol-5-yl)phenoxy]-1′H-spiro[cyclohexane-1,4′-quinazolin]-2′(3′H)-one], on PDE7B, the Ki was 0.8 nM and the 1C/7B selectivity is listed as 48. Moreover, the Ki at PDE1C was 37 nM. For the same compound, on PDE7A, the Ki is less than 0.15 nM and the 1C/7A selectivity is more than 245.

Regarding `O=C1Nc2c(Cl)ccc(Oc3c(F)cccc3-c3noc(=O)[nH]3)c2C2(CCCCC2)N1` [Example 18, 8′-chloro-5′-[2-fluoro-6-(5-oxo-4,5-dihydro-1,2,4-oxadiazol-3-yl)phenoxy]-1′H-spiro[cyclohexane-1,4′-quinazolin]-2′(3′H)-one], on PDE7B, the Ki came to 1.6 nM and the 1C/7B selectivity is given as 59. On PDE1C, this compound displayed a Ki of 94 nM. For the same compound, on PDE7A, the inhibitory constant (Ki) came to 1.1 nM and the 1C/7A selectivity is 85.

In the case of `O=C1Nc2c(Cl)ccc(Oc3c(F)cccc3-c3n[nH]c(=O)[nH]3)c2C2(CCCCC2)N1` [Example 19, 8′-chloro-5′-[2-fluoro-6-(5-oxo-4,5-dihydro-1H-1,2,4-triazol-3-yl)phenoxy]-1′H-spiro[cyclohexane-1,4′-quinazolin]-2′(3′H)-one], the Ki at PDE7B amounted to 1.5 nM; on PDE1C, 172 nM; at PDE7A, 0.94 nM. Further, on PDE7B, the 1C/7B selectivity was 115. The 1C/7A selectivity at PDE7A is listed as 183.

For the compound `CS(=O)(=O)NC(=O)c1cccc(F)c1Oc1ccc(Cl)c2c1C1(CCCCC1)NC(=O)N2` [Example 20, 2-[(8′-chloro-2′-oxo-2′,3′-dihydro-1′H-spiro[cyclohexane-1,4′-quinazolin]-5′-yl)oxy]-3-fluoro-N-(methylsulfonyl)benzamide], at PDE7B, the inhibition constant Ki was 7 nM and the 1C/7B selectivity was 94. The affinity on PDE1C corresponds to a Ki of 657 nM. Besides, on PDE7A, the Ki was determined as 2.3 nM and the 1C/7A selectivity came out at 290.

Take `O=C1Nc2c(Cl)ccc(Oc3c(F)cccc3NS(=O)(=O)C(F)(F)F)c2C2(CCCCC2)N1` [Example 21, N-{2-[(8′-chloro-2′-oxo-2′,3′-dihydro-1′H-spiro[cyclohexane-1,4′-quinazolin]-5′-yl)oxy]-3-fluorophenyl}-1,1,1-trifluoromethanesulfonamide]: the Ki on PDE7B worked out at 2.4 nM; at PDE1C, 62 nM; on PDE7A it was 0.2 nM. The 1C/7B selectivity on PDE7B is on record as 25. Moreover, the 1C/7A selectivity at PDE7A was 311.

With `O=C(O)COc1ccccc1Oc1ccc(Cl)c2c1C1(CCCCC1)NC(=O)N2` [Example 23, {2-[(8′-chloro-2′-oxo-2′,3′-dihydro-1′H-spiro[cyclohexane-1,4′-quinazolin]-5′-yl)oxy]phenoxy}acetic acid], on PDE7B, affinity was put at a Ki of 1.9 nM and the 1C/7B selectivity came to 31. Further, on PDE1C, the Ki was found to be 58 nM. On PDE7A, the Ki was 0.48 nM and the 1C/7A selectivity is listed as 121.

As to `O=C(O)COc1ccc(Oc2ccc(Cl)c3c2C2(CCCCC2)NC(=O)N3)cc1` [Example 24, {4-[(8′-chloro-2′-oxo-2′,3′-dihydro-1′H-spiro[cyclohexane-1,4′-quinazolin]-5′-yl)oxy]phenoxy}acetic acid], the Ki on PDE7B was 11 nM; on PDE1C it was 157 nM; at PDE7A, 0.98 nM. Besides, the 1C/7B selectivity on PDE7B worked out at 14. Also, at PDE7A, the 1C/7A selectivity was 160.

Source of the values: patent US20100216823A1 (Pfizer Inc., priority 2007, published 2010).
